Paper PMC545952, “Analysis of the kinetic mechanism of recombinant human isoprenylcysteine carboxylmethyltransferase (Icmt)” (BMC Biochemistry, 2004)
“And” between values parts separate entries of the source, which are not always exact repeats. Equal entries are not always repeated. Where two headings read alike, the source gives them in different places.

Tests used:
[1] = tested on: methyltransferase activity in rod outer segments; settings: cited from earlier work; for Ki: previous study, rod outer segments
recombinant human Icmt = target: T1, recombinant human Icmt (Homo sapiens, UniProt O60725); test: Icmt assay: [3H]methyl incorporation into BFC, Sf9 membranes containing recombinant human Icmt; format: biochemical; settings: for Km: substrate of recombinant human Icmt, in vitro methylation assay, read-out: Km (apparent) as substrate
T1 construct: a recombinant baculovirus containing the entire open reading frame of the human Icmt cDNA; made in house; host or cells: Sf9 insect cells (baculovirus); membrane fraction used
T1 sequence (O60725 whole entry): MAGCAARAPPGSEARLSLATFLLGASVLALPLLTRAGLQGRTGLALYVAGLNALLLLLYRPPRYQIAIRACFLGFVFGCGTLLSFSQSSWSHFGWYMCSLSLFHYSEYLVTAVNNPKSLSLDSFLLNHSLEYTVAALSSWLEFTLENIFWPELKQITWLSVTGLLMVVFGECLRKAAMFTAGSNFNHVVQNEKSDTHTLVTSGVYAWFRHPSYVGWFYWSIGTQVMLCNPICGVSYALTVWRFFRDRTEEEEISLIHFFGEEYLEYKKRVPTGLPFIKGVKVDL
Source text: Streptavidin-sepharose beads were purchased from Amersham, trans, trans-farnesyl bromide, biotin N-hydroxysuccinimide ester and S-(5'-adenosyl)-L-methionine p-toluenesulfonate were purchased from Sigma-Aldrich, L-cysteine was purchased from Novabiochem, [^3H-methyl]-S-adenosyl-L-methionine was purchased from Perkin Elmer Life Sciences, farnesylthioacetic acid (FTA) was purchased from Biomol, S-(5'-adenosyl)-L-homocysteine was purchased from Fluka. The N-acetyl-S-farnesylcysteine methyl ester (AFCME) and N-acetyl-S-farnesylcysteine methyl amide (AFCMA) were synthesized as previously described ([24-26]). Recombinant human Icmt was prepared by infection of Sf9 cells with a recombinant baculovirus containing the entire open reading frame of the human Icmt cDNA as described. The membrane fraction of the infected Sf9 cells, isolated as described for studies with the Rce1 protease, was used as the source of Icmt for all studies described.
The assay developed for Icmt activity involved quantitation of [^3H]methyl incorporation into the small molecule substrate BFC. For the standard assay, reactions were initiated by addition of Sf9 membranes containing Icmt (0.5 μg protein) to an assay mixture containing BFC (4 μM) and [^3H]AdoMet (5 μM, 1.3 Ci/mmol) in100 mM Hepes, pH 7.4 and 5 mM MgCl2 in a total volume of 45 μl. Reactions were carried out for 20 min at 37°C, whereupon they were terminated by addition of 5 μl of 10% Tween 20. Following termination, streptavidin beads (10 μl of packed beads suspended in 500 μl of 20 mM NaH2PO4, pH 7.4, contaning 150 mM NaCl) were added, and the mixtures mixed by gentle agitation overnight at 4°C. The beads were harvested by centrifugation in a tabletop microcentrifuge at 10,000 rpm for 5 min and washed 3 times with 500 μl of 20 mM NaH2PO4, pH 7.4, containing 150 mM NaCl. The beads were then suspended in 100 μl of the same buffer, transferred to scintillation vials, and radioactivity determined. For the kinetic analyses, the concentrations of substrates (AdoMet, BFC) or additional ligands (eg. AdoHcy, AFCME, etc) were varied as detailed in the legends to the appropriate figures.

[2] = varied AdoMet, fixed BFC 4 μM, read-out: Ki with respect to AdoMet
[3] = varied BFC, fixed AdoMet 5 μM, read-out: Ki with respect to BFC

Row | type of inhibition with respect to AdoMet (recombinant human Icmt; varied AdoMet, fixed BFC 4 μM) | type of inhibition with respect to BFC (recombinant human Icmt; varied BFC, fixed AdoMet 5 μM) | Ki (recombinant human Icmt; [3]) | Compound | other results
1 |  |  |  | CC(=O)N[C@@H](CSCC=C(C)CCC=C(C)CCC=C(C)C)C(=O)O [AFC, N-acetyl-L-farnesylcysteine] | Km ([1]; read-out: apparent Km as substrate): 20 µM; apparent Km relative to Km of BFC (recombinant human Icmt; AFC Km (ref 20, 31) versus BFC Km 2.1 μM): 10 fold
2 |  |  |  | CNC(=O)[C@H](CSCC=C(C)CCC=C(C)CCC=C(C)C)NC(C)=O [AFCMA, N-acetyl-S-farnesyl-L-cysteine methyl amide] | product inhibition results compared with AFCME (recombinant human Icmt; second prenylcysteine-type product analog, data not shown): essentially identical results
3 | Mixed-type | Noncompetitive | 1900 nM and 1910 nM | COC(=O)[C@H](CSCC=C(C)CCC=C(C)CCC=C(C)C)NC(C)=O [AFCME, N-acetyl-S-farnesyl-L-cysteine methylester] | Ki ([1]; compared with the value with respect to BFC, read-out: inhibition constant with respect to prenylcysteine substrate): 41000 nM; Ki ([1]; read-out: inhibition constant with respect to AdoMet): 73000 nM; Ki (recombinant human Icmt; [2]): 2400 nM and 2430 nM
4 | Competitive | Competitive | 3600 nM and 3590 nM | Nc1ncnc2c1ncn2[C@@H]1O[C@H](CSCC[C@H](N)C(=O)O)[C@@H](O)[C@H]1O [AdoHcy, S-adenosyl-L-homocysteine] | Ki (recombinant human Icmt; [2]): 3500 nM and 3540 nM
5 |  |  |  | C[S+](CC[C@H](N)C(=O)[O-])C[C@H]1O[C@@H](n2cnc3c(N)ncnc32)[C@H](O)[C@@H]1O (stereo partly drawn) [AdoMet, S-adenosyl-L-methionine] | Km (recombinant human Icmt): 7.8 µM
6 |  |  |  | CC(C)=CCC/C(C)=C/CC/C(C)=C/CSC[C@H](NC(=O)CCCCC1SCC2NC(=O)NC21)C(=O)O (stereo partly drawn) [BFC, biotin-S-farnesyl-L-cysteine] | Km (recombinant human Icmt): 2.1 µM
7 | Uncompetitive | Competitive | 1200 nM and 1170 nM | CC(C)=CCC/C(C)=C/CC/C(C)=C/CSCC(=O)O [FTA, S-farnesylthioacetic acid] | 
